Legend:
iNOS expression in MSC = test: RNA analysis of immunosuppressive factor iNOS in exposed MSC; assay type: cell-based, human; settings: 48 hours
Protocol: (§1) A single vial of human bone marrow-derived MSC was expanded and seeded using standard growth medium. At 95-99% confluency, cells were thoroughly washed with phosphate-buffered saline (PBS) and exposed to media containing treprostinil at doses ranging from 250 μg/mL to 0.004 μg/mL. After 48 hours of culture, cells were photographed and assessed for treatment-induced changes in morphology.
(§2) RNA from MSCs exposed to treprostinil of from 250 μg/mL to 0.004 μg/mL was re-analyzed for several other anti-inflammatory factors.

IDO1 expression in MSC = test: RNA analysis of immunosuppressive factor IDO1 in exposed MSC; assay type: cell-based, human; settings: 48 hours
Protocol: as §1, §2

IL13 expression in MSC = test: RNA analysis of anti-inflammatory cytokine IL13 in exposed MSC; assay type: cell-based, human; settings: 48 hours
Protocol: as §1
(§3) Cells exposed to treprostinil ranging from 250 μg/mL-0.004 μg/mL as described in Example 1 were harvested. RNA of the cells was extracted and then analyzed for pro- and anti-inflammatory cytokines. Cytokines, or small proteins involved in both internal and secreted cell signaling, have been identified to play a role in the inflammatory pathogenesis of PAH (Groth et al., Respiratory Research, 15:47 (2014)).

TGFβ expression in MSC = test: RNA analysis of immunosuppressive factor TGFβ in exposed MSC; assay type: cell-based, human; settings: 48 hours
Protocol: as §1, §2

HLA expression in MSC = test: RNA analysis of immunosuppressive factor HLA in exposed MSC; assay type: cell-based, human; settings: 48 hours
Protocol: as §1, §2

[1] = test system: human bone marrow-derived MSC; test: MSC morphology after 48 hours exposure (cytotoxic effect); assay type: cell-based; settings: 48 hours of culture
Protocol: as §1

IL10 expression in MSC = test: RNA analysis of anti-inflammatory cytokine IL10 in exposed MSC; assay type: cell-based, human; settings: 48 hours
Protocol: as §1, §3

TNFα expression in MSC = test: RNA analysis of pro-inflammatory cytokine TNFα in exposed MSC; assay type: cell-based, human; settings: 48 hours
Protocol: as §1, §3

In the case of CCCCC[C@H](O)CC[C@@H]1[C@H]2Cc3cccc(OCC(=O)O)c3C[C@H]2C[C@H]1O [treprostinil], the “iNOS over unexposed control” value (iNOS expression in MSC; 9.3 μg/mL) is reported as “increased”, the iNOS over control (iNOS expression in MSC; increasing doses) is reported as “robust increase” and the “IDO over unexposed control” value (IDO1 expression in MSC; 9.3 μg/mL) is reported as “increased”. For the same compound, the IDO1 over control (IDO1 expression in MSC; increasing doses) was “robust increase”, the “IL13 over unexposed control” value (IL13 expression in MSC; 9.3 μg/mL) was “increased” and the “increase of IL13 expression in MSC” value (IL13 expression in MSC; 27.8 μg/mL) was 8.8 fold. For the same compound, the “IL13 signaling over control” value (IL13 expression in MSC; increasing doses) was “increase”, the “TGFβ over unexposed control” value (TGFβ expression in MSC; 9.3 μg/mL) was “increased” and the TGFβ over control (TGFβ expression in MSC; increasing doses) was “robust increase”. The “HLA over unexposed control” value (HLA expression in MSC; 9.3 μg/mL) was “increased”, the HLA over control (HLA expression in MSC; increasing doses) was “robust increase” and the “MSC morphology (cytotoxic effect)” value ([1]; 83.3 μg/mL or lower) was “did not cause morphological changes associated with cell death”. For the same compound, the “MSC morphology (cytotoxic effect)” value ([1]; 250 μg/mL) was “rounded up and detached”, the “increase of IL10 expression in MSC” value (IL10 expression in MSC; 9.3 μg/mL) was 5.4 fold and the “IL10 signaling over control” value (IL10 expression in MSC; increasing doses) was “increase”. For the same compound, the “lowering of TNFα expression compared to control” value (TNFα expression in MSC; 0.3 μg/mL to 83.3 μg/mL) was “up to 4.7 fold” and the “TNFα over unexposed control” value (TNFα expression in MSC; 9.3 μg/mL) was “decreased”.

— US11571444B2, “Enhancement of MSC immunomodulatory properties by treprostinil” (United Therapeutics Corporation, priority 2016, dated 2023)
